What all share (assay type): in vivo
Test [1] deals with Avena fatua (AVEFA). The test can be described thus: Pre-emergence herbicidal activity, glasshouse pot test. The following applies: Avena fatua, 480 h, rate 500 g/ha, evaluated after 20 days, read-out: Pre-emergence activity, AVEFA (100=total damage to plant; 0=no damage to plant). The gist of the method:
(§1)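 Visual damage score 0–100 (100 = plant totally killed), taken 20 days after treatment. Spray was applied to pots of sterilised standard soil one day post-sowing, using an aqueous solution of compound in acetone and a surfactant/solvent blend (Emulsogen EL, NMP, DPGME, X-77).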

Test [2] deals with Setaria faberi (SETFA). Described as above. The note with it: Setaria faberi, 480 h, rate 500 g/ha, evaluated after 20 days, read-out: Pre-emergence activity, SETFA (100=total damage to plant; 0=no damage to plant). The essentials: as §1
Test [3] deals with Alopecurus myosuroides (ALOMY). Described as above. The following applies: Alopecurus myosuroides, 480 h, rate 500 g/ha, evaluated after 20 days, read-out: Pre-emergence activity, ALOMY (100=total damage to plant; 0=no damage to plant). The gist of the method:
as §1

For test [4], the system named is Digitaria sanguinalis (DIGSA). The test is described as above. The following applies: Digitaria sanguinalis, 480 h, rate 500 g/ha, evaluated after 20 days, read-out: Pre-emergence activity, DIGSA (100=total damage to plant; 0=no damage to plant). The gist of the method:
as §1

Test [5] has as its system Echinochloa crus-galli (ECHCG). The test is described as above. The note with it: Echinochloa crus-galli, 480 h, rate 500 g/ha, evaluated after 20 days, read-out: Pre-emergence activity, ECHCG (100=total damage to plant; 0=no damage to plant). The gist of the method: as §1
Test [6] concerns Lolium perenne (LOLPE). Described as above. The following applies: Lolium perenne, 480 h, rate 500 g/ha, evaluated after 20 days, read-out: Pre-emergence activity, LOLPE (100=total damage to plant; 0=no damage to plant). The gist of the method: as §1
In test [7] the test system is Avena fatua (AVEFA). The test can be described thus: Post-emergence herbicidal activity, glasshouse pot test. The following applies: Avena fatua, evaluated after 14 or 15 days, read-out: Post-emergence activity, AVEFA (100=total damage to plant; 0=no damage to plant); for pest or weed control at 500 g/ha: rate 500 g/ha; for pest or weed control at 125 g/ha: rate 125 g/ha. The gist of the method:
(§2)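 Post-emergence spray on 10-day-old potted plants (sterilised standard soil, controlled glasshouse conditions); spray solution from technical compound in acetone with Emulsogen EL, N-methylpyrrolidone, dipropylene glycol monomethyl ether and X-77. Rated 14–15 d later, 0 = no damage, 100 = total damage.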

For test [8], the system named is Setaria faberi (SETFA). The description is as above. The note with it: Setaria faberi, evaluated after 14 or 15 days, read-out: Post-emergence activity, SETFA (100=total damage to plant; 0=no damage to plant); for pest or weed control at 500 g/ha: rate 500 g/ha; for pest or weed control at 125 g/ha: rate 125 g/ha. The gist of the method:
as §2

Test [9] deals with Alopecurus myosuroides (ALOMY). The test is described as above. The note with it: Alopecurus myosuroides, evaluated after 14 or 15 days, read-out: Post-emergence activity, ALOMY (100=total damage to plant; 0=no damage to plant); for pest or weed control at 500 g/ha: rate 500 g/ha; for pest or weed control at 125 g/ha: rate 125 g/ha. The gist of the method:
as §2

For test [10], the system named is Digitaria sanguinalis (DIGSA). The test is described as above. The note with it: Digitaria sanguinalis, evaluated after 14 or 15 days, read-out: Post-emergence activity, DIGSA (100=total damage to plant; 0=no damage to plant); for pest or weed control at 500 g/ha: rate 500 g/ha; for pest or weed control at 125 g/ha: rate 125 g/ha. The essentials: as §2
Test [11] has as its system Echinochloa crus-galli (ECHCG). Described as above. The following applies: Echinochloa crus-galli, evaluated after 14 or 15 days, read-out: Post-emergence activity, ECHCG (100=total damage to plant; 0=no damage to plant); for pest or weed control at 500 g/ha: rate 500 g/ha; for pest or weed control at 125 g/ha: rate 125 g/ha. The essentials: as §2
Test [12] has as its system Lolium perenne (LOLPE). The description is as above. The following applies: Lolium perenne, evaluated after 14 or 15 days, read-out: Post-emergence activity, LOLPE (100=total damage to plant; 0=no damage to plant); for pest or weed control at 500 g/ha: rate 500 g/ha; for pest or weed control at 125 g/ha: rate 125 g/ha. The essentials: as §2

Structures are written as SMILES.

`CCc1cc(C)cc(CC)c1C1=C(O)CC(C(C)(C)SC)CC1=O` (stereo not drawn) [Compound T20]: the pest or weed control at 500 g/ha (in the test on Avena fatua (AVEFA) [1]; in the test with Setaria faberi (SETFA) [2]; in test [3]; in test [4]; in test [5]; in the test with Lolium perenne (LOLPE) [6]) was 100% throughout. The pest or weed control at 500 g/ha (in the test on Avena fatua (AVEFA) [7]; with Setaria faberi (SETFA) [8]; in test [9]; in [10]; in test [11]; with Lolium perenne (LOLPE) [12]) was 100% in each case.
On to `CCc1cc(C)cc(CC)c1C1=C(OC(=O)CCCCCCC(=O)OC)CC2(CCOCC2)CC1=O` [Compound P46], for which the pest or weed control at 500 g/ha (in the test with Avena fatua (AVEFA) [1]; in the test on Setaria faberi (SETFA) [2]; in test [3]; in test [4]; in test [5]; in the test with Lolium perenne (LOLPE) [6]) was 100% throughout. The pest or weed control at 125 g/ha in the test with Avena fatua (AVEFA) [7] stood at 100%; with Setaria faberi (SETFA) [8] it was 90%; in test [9], 90%; in test [10], 90%; in test [11], 100%; in the test with Lolium perenne (LOLPE) [12], 90%.
With `CCc1ccc(-c2ccc(Cl)cc2)cc1C1=C(O)CC(CCSC)CC1=O` (stereo not drawn) [Compound T65], the pest or weed control at 500 g/ha with Avena fatua (AVEFA) [1] turned out to be 60%; with Setaria faberi (SETFA) [2], 100%; in test [3] it was 90%; in test [4], 100%; in test [5] it was 100%; in the test with Lolium perenne (LOLPE) [6], 70%. For the same compound, the pest or weed control at 125 g/ha in the test on Avena fatua (AVEFA) [7] worked out at 90%; with Setaria faberi (SETFA) [8], 90%; in [9], 90%; in [10], 90%; in test [11] it was 100%; in the test with Lolium perenne (LOLPE) [12], 70%.
As for `CCc1cc(C)cc(CC)c1C1=C(O)CC(CC(C)[S+]([O-])C(C)C)CC1=O` (stereo not drawn) [Compound T55], the pest or weed control at 500 g/ha in the test with Avena fatua (AVEFA) [1] was 90%; in the test with Setaria faberi (SETFA) [2], 90%; in [3], 100%; in test [4], 100%; in test [5], 100%; in the test on Lolium perenne (LOLPE) [6], 100%. Further, the pest or weed control at 125 g/ha in the test with Avena fatua (AVEFA) [7] worked out at 80%; in the test with Setaria faberi (SETFA) [8], 60%; in test [9], 90%; in [10] it was 80%; in test [11], 90%; in the test with Lolium perenne (LOLPE) [12] it was 80%.
For the compound `CCc1cc(C)cc(CC)c1C1=C(OC(=O)C2CCCCC2)CC2(CCOCC2)CC1=O` [Compound P12], the pest or weed control at 500 g/ha (in the test on Avena fatua (AVEFA) [1]; in the test on Setaria faberi (SETFA) [2]; in test [3]; in [4]; in test [5]; in the test on Lolium perenne (LOLPE) [6]) was 100% each time. The pest or weed control at 125 g/ha with Avena fatua (AVEFA) [7] is 90%; in the test on Setaria faberi (SETFA) [8], 90%; in test [9] it was 80%; in test [10], 90%; in test [11] it was 100%; with Lolium perenne (LOLPE) [12], 100%.
Consider `CCc1cc(C)cc(CC)c1C1=C(OC(C)=O)CC2(CCOCC2)CC1=O` [Compound P1], for which the pest or weed control at 500 g/ha (in the test with Avena fatua (AVEFA) [1]; in the test with Setaria faberi (SETFA) [2]; in test [3]; in test [4]; in test [5]; in the test with Lolium perenne (LOLPE) [6]) was 100% throughout. In addition, the pest or weed control at 125 g/ha is 60% in the test on Avena fatua (AVEFA) [7]; 30% in the test with Setaria faberi (SETFA) [8]; 50% in test [9]; 50% in test [10]; 50% in [11]; 30% in the test on Lolium perenne (LOLPE) [12].
Turning to `CCCSC(C)CC1CC(=O)C(c2c(C)cc(C)cc2C)=C(O)C1` (stereo not drawn) [Compound T35], the pest or weed control at 500 g/ha amounted to 80% with Avena fatua (AVEFA) [1]; 80% with Setaria faberi (SETFA) [2]; 90% in test [3]; 90% in test [4]; 70% in [5]; 80% in the test on Lolium perenne (LOLPE) [6]. Besides, the pest or weed control at 500 g/ha came out at 70% in the test with Avena fatua (AVEFA) [7]; 50% in the test on Setaria faberi (SETFA) [8]; 90% in test [9]; 70% in test [10]; 70% in [11]; 80% with Lolium perenne (LOLPE) [12].
As to `CCc1cc(C)cc(CC)c1C1=C(O)CC(CC(C)S(C)(=O)=O)CC1=O` (stereo not drawn) [Compound T30], the pest or weed control at 500 g/ha with Avena fatua (AVEFA) [1] is 80%; in the test on Setaria faberi (SETFA) [2] it was 100%; in test [3] it was 80%; in test [4], 100%; in test [5], 100%; with Lolium perenne (LOLPE) [6], 90%. For the same compound, the pest or weed control at 500 g/ha was 90% in the test on Avena fatua (AVEFA) [7]; 100% in the test on Setaria faberi (SETFA) [8]; 70% in [9]; 100% in test [10]; 100% in test [11]; 80% in the test with Lolium perenne (LOLPE) [12].
On to `CCc1cc(C)cc(CC)c1C1=C(O)CC(CC(C)S(=O)(=O)C(C)C)CC1=O` (stereo not drawn) [Compound T54], for which the pest or weed control at 500 g/ha in the test with Avena fatua (AVEFA) [1] was determined as 80%; in the test with Setaria faberi (SETFA) [2] it was 80%; in test [3], 100%; in test [4], 100%; in test [5], 100%; with Lolium perenne (LOLPE) [6] it was 100%. The pest or weed control at 125 g/ha was 60% in the test with Avena fatua (AVEFA) [7]; 50% in the test with Setaria faberi (SETFA) [8]; 80% in [9]; 70% in [10]; 80% in [11]; 80% in the test with Lolium perenne (LOLPE) [12].
In the case of `CCc1cc(C)cc(CC)c1C1=C(OS(C)(=O)=O)CC2(CCOCC2)CC1=O` [Compound P24], the pest or weed control at 500 g/ha with Avena fatua (AVEFA) [1] amounted to 80%; with Setaria faberi (SETFA) [2], 90%; in [3], 80%; in [4], 70%; in test [5] it was 50%; in the test with Lolium perenne (LOLPE) [6], 80%. For the same compound, the pest or weed control at 125 g/ha (with Avena fatua (AVEFA) [7]; with Setaria faberi (SETFA) [8]; in test [9]; in test [10]; in test [11]; in the test with Lolium perenne (LOLPE) [12]) was 0% throughout.

The values above are taken from patent US8084649B2, “Herbicides” (Syngenta Crop Protection, inc., priority 2007, dated 2011).
